Source: the SangsterLogP compilation

Conditions: not given

Row | SMILES | logP
1 | Cc1ccccc1CO | 1.58
2 | CC12CC(O)C3C(CCC4(O)CC(O)CC(O)C34CO)C1(O)CCC2C1=CC(=O)OC1 (stereo not given) | -0.02
3 | CC(C)(C)NCC(O)COCC=Cc1ccccc1 (stereo not given) | 2.69
4 | c1ccc(-c2csnn2)cc1 | 2.42
5 | O/N=C/c1ccncc1 | 0.77
6 | c1ccc(OP2OCCO2)cc1 | 1.42
7 | COc1ccccc1NC(=O)Nc1ccccc1OC | 2.98
8 | COCCOc1ccccc1OCCOC | 1.12
9 | C=CCn1cccn1 | 0.35
10 | CCCSP(=S)(OCC)Oc1ccc(Cl)cc1Cl (stereo not given) | 4.92
11 | O=C1C(F)=C(N2CC2)C(=O)C(N2CC2)=C1N1CC1 | 0.14
12 | CC(=O)N(C)Nc1ccccc1 | 1.31
13 | CC1(O)CCCCC1 | 1.33
14 | Oc1ccc(CCNCCCCCCNCCc2ccccc2)cc1O | 1.88
15 | c1ncc2c(n1)-c1cn[nH]c1-2 | 0.14
16 | N#CCC#N | -0.5
17 | Nc1nc(=O)cc[nH]1 | -0.99
18 | CCCCCCCCn1cc(C)c(=O)[nH]c1=O | 3.04
19 | CN(C)C(CSS(=O)(=O)c1ccccc1)CSS(=O)(=O)c1ccccc1 | 3.36
20 | COc1cccc(N(C)C(=S)Oc2cccc(C(C)(C)C)c2)n1 | 5.18
21 | COC1=C(N2CC2)C(=O)C(OC)=C(N2CC2)C1=O | 0.17
22 | CS(C)(=O)=O | -1.34
23 | CCOC(=O)CCCOc1ccc(Cl)cc1C | 4.26

Row | SMILES | logP
24 | C1=COCCC1 | 0.69
25 | CCN(C(=O)SCc1ccccc1)C(C)C(C)C (stereo not given) | 4.6
26 | CN(C)C1=CC(=O)C(N(C)C)=CC1=O | 1.03
27 | O=C1C=C(NCCO)C(=O)c2ccccc21 | 1.23
28 | CC1C=CCN1 (stereo not given) | 1.87
29 | O=C1C=CC(=O)C(Cl)=C1 | 0.84
30 | N#Cc1cccc(F)c1 | 1.47
31 | C[C@H](C(=O)O)c1ccc(N2Cc3ccccc3C2=O)cc1 | 2.89
32 | O=C(OCCc1ccccc1)c1ccccc1 | 4.01
33 | C=CCC | 2.4
34 | CCc1cccc(C)c1NC(=O)OC(C)C | 2.52
35 | Nc1n[nH]c(Cc2ccc([N+](=O)[O-])o2)n1 | 1.28
36 | N#Cc1ccc(C#N)cc1 | 0.93
37 | Nc1ccn(C2CC(CO)C(O)C2O)c(=O)n1 (stereo not given) | -2.41
38 | CNC(=S)NNc1ccccc1 | 1.17
39 | CC(C(=O)O)c1ccc(N2CC3CCCCC3C2=O)cc1 (stereo not given) | 3.07
40 | O=C1CCc2cccc3c2N1CC3 | 1.6
41 | CC(C)(C)C1=Nc2ccc(Cl)cc2S(=O)(=O)N1 | 2.4
42 | NC(=O)Nc1cccc2cccnc12 | 1.62
43 | C[C@]12CCC(=O)C=C1CC[C@@H]1[C@@H]2CC[C@@]2(C)[C@H]1CC[C@]2(O)[C@H](O)CO | 2
44 | CC1=C(/C=C/C(C)=C/C=C/C(C)=C/CO)C(C)(C)CCC1 | 5.68
45 | COc1ccc(C(C)=O)c(OC)c1OC | 1.63
46 | CSC(=S)Nc1ccc(Cl)c(Cl)c1 | 4.23

Same assay, conditions: pH 1.0

Row | SMILES | logD
47 | CC(C)CC#N | 1.07
48 | O=C(O)CCCOc1ccc(Cl)cc1Cl | 3.53

Same assay, conditions: pH 2.1

Row | SMILES | logD
49 | CC(=O)c1cccc(S(N)(=O)=O)c1 | 0.25

Same assay, conditions: pH 4.0

Row | SMILES | logD
50 | O=[N+]([O-])c1cc(C(F)(F)F)cc([N+](=O)[O-])c1NN=C(C(F)(F)F)C(F)(F)F | 3.6
51 | N#Cc1ccc(NN=C(C(F)(F)F)C(F)(F)F)c([N+](=O)[O-])c1 | 3.4

Same assay, conditions: pH 5.0

Row | SMILES | logD
52 | Sc1nc(-c2ccccc2)ns1 | 2.13

Same assay, conditions: pH 7.4

Row | SMILES | logD
53 | Nc1ccc2c(n1)[nH]c1ccccc12 | 2.6
54 | Cc1ncc([N+](=O)[O-])n1CCNC(=O)OC(C)C | 0.88
55 | OCc1ccc2cccnc2c1 | 1.29
56 | O=[N+]([O-])c1cn(Cc2ccccc2)cn1 | 1.36
57 | Nc1ncc(Cc2ccccc2O)c(N)n1 | 0.82
58 | Cc1ccnc2ccccc12 | 2.61
59 | Cn1cc(-c2ccccc2)c(=O)c(-c2cccc(C(F)(F)F)c2)c1 | 3.16
60 | Cc1nc(C)c([N+](=O)[O-])[nH]1 | 0.43
61 | CC(=O)Nc1cccc2cccnc12 | 1.91
62 | CCN(CCO)c1ccccc1 | 2.1

Same assay, conditions: pH 13.0

Row | SMILES | logD
63 | CCCNC | 0.84
64 | CC(C)(C)N(CC(O)COc1ccccc1)CC(O)COc1ccccc1 (stereo not given) | 3.99
65 | NCCN1CCCC1 | 0.08
